Entries after “also recorded” stand apart in the source; their conditions may differ.
How the values were obtained:
[1] = target: T1, hTGR5 (Homo sapiens, UniProt Q8TDU6); test: TGR5-dependent cAMP accumulation (ELISA) in transfected 293T cells; assay type: cell-based
T1 construct: expressed in transfected cells; host or cells: 293T cells, transient transfection with pTGR5 (gift from Prof. Johan Auwerx)
T1 sequence (Q8TDU6 1-330): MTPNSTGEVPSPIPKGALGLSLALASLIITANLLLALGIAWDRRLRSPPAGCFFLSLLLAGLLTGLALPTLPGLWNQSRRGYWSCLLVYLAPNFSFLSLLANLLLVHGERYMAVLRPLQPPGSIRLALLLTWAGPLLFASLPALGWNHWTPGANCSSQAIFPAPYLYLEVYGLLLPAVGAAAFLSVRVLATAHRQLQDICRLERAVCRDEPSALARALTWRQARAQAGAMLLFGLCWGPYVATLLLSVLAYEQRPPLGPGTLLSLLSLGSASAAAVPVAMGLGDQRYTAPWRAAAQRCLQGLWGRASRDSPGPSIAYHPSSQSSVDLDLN
Experimental: For human TGR5 luciferase (luc) assay, 293T cells were co-transfected with pCRE-luc, pTGR5 (kind gift from Prof. Johan Auwerx, Ecole Polytechnique Fédérale de Lausanne, Lausanne, Switzerland) and pRenilla (Promega, USA). WB403 was added 5 h later. Cells were harvested after 16 h and subjected to luciferase analysis on Lumistar Optima chemiluminescent detector (BMG labtech, Germany). For cAMP testing, 293T cells transiently transfected with pTGR5 or pGPR119 (GeneCopoeia, USA) were washed by FBS-free DMEM, and stimulated with WB403 in FBS-free DMEM containing 3-isobutyl-1-methyl-xanthine (IBMX, Sigma). Cell lysates were collected 30 min later and used for cAMP ELISA assay. FLIPR Calcium 5 assay kit (Molecular Devices, USA) was used for calcium mobilization assay. […] Increase of the intracellular Ca^2+ concentration was monitored by Flexstation 3 system (Molecular Devices, USA).
(§1) The GLP-1 (active) ELISA kit was purchased from Millipore, and insulin ELISA kit was from Mercodia. For quantitative determination of cAMP, a competitive enzyme immunoassay kit from R&D system was used. […]
Fig 1 WB403 activated TGR5 and promoted active GLP-1 secretion. […] Gallbladders (GB) were removed 30 min later and volumes measured then normalized to body weight (B.W.). n = 10. **p<0.01 vs. vehicle group. […]

[2] = pharmacokinetic test in Sprague-Dawley rats; assay type: in vivo; details: male, plasma, rat
Experimental: Adult male Sprague-Dawley rats fasted for 12 h were randomized into two groups (n = 5) for intravenous injection (i.v.) or oral administration (p.o.). Blood samples were collected from the orbital plexus at 10, 20, 30, 40, 60, 90, 120, 150, 180, 240, 360 and 480 min after administration. The concentration of WB403 in plasma was determined by an Aligent Technologies 1260 series HPLC system with a DAD detector. The oral bioavailability (F%) was calculated as F (%) = AUC0-∞(p.o.) / AUC0-∞(i.v.) × Dose (i.v.) / Dose (p.o.).

[3] = target: T1, hTGR5; test: human TGR5 CRE-luciferase assay in co-transfected 293T cells; assay type: cell-based
Experimental: (§2) For human TGR5 luciferase (luc) assay, 293T cells were co-transfected with pCRE-luc, pTGR5 (kind gift from Prof. Johan Auwerx, Ecole Polytechnique Fédérale de Lausanne, Lausanne, Switzerland) and pRenilla (Promega, USA). WB403 was added 5 h later. Cells were harvested after 16 h and subjected to luciferase analysis on Lumistar Optima chemiluminescent detector (BMG labtech, Germany). For cAMP testing, 293T cells transiently transfected with pTGR5 or pGPR119 (GeneCopoeia, USA) were washed by FBS-free DMEM, and stimulated with WB403 in FBS-free DMEM containing 3-isobutyl-1-methyl-xanthine (IBMX, Sigma). Cell lysates were collected 30 min later and used for cAMP ELISA assay. FLIPR Calcium 5 assay kit (Molecular Devices, USA) was used for calcium mobilization assay. 293-GPR40 stable cells (kindly provided by Prof. Naiming Zhou of Zhejiang University, Hanzhou, China) or 293 cells transient transfected with GPR120 were seeded at 50,000 cells per well in black-walled clear-bottomed 96-well plates (Costar). An equal volume of loading buffer containing Fluo 4-AM was added the following day and cells were incubated for 1 h before stimulated with compounds. Increase of the intracellular Ca^2+ concentration was monitored by Flexstation 3 system (Molecular Devices, USA).
(§3) Fig 1 WB403 activated TGR5 and promoted active GLP-1 secretion. (A) WB403 stimulated hTGR5 in CRE-luciferase report system at the concentration range of 1–20 μmol/l. (B) WB403 stimulated hTGR5 specific cAMP accumulation at the concentration range of 1–50 μmol/l. n = 3. **p<0.01, ***p<0.001 vs. DMSO (+TGR5) group. (C) The hTGR5 targeted CRE-luciferase activity of WB403 and ZY403. […] (D) Effect of WB403 and ZY403 on gallbladders of mice. Normal mice were fasted overnight and treated with compounds (200 mg/kg) or vehicle (DMSO) by ip injection. Gallbladders (GB) were removed 30 min later and volumes measured then normalized to body weight (B.W.). n = 10. **p<0.01 vs. vehicle group. (E) Structure of WB403 and ZY403. WB403 promoted GLP-1 secretion in NCI-H716 cells (F), primary enterocytes (G), and MIN6 cells (H). n = 3. *p<0.05, **p<0.01, ***p<0.001 vs. vehicle group. (I) WB403 promoted GLP-1 in ICR mice. n = 5. **p<0.01 vs. vehicle group. Values represent mean ± SEM.

[4] = system: gallbladders of mice; test: gallbladder filling in normal mice; assay type: in vivo; details: 200 mg/kg ip, normal mice fasted overnight, gallbladders removed 30 min later, n = 10
From the text: as §3

[5] = target: T2, hGPR119 (Homo sapiens, UniProt Q8TDV5); test: GPR119-dependent cAMP accumulation in transfected 293T cells; assay type: cell-based; details: 10, 20 μmol/l
T2 construct: host or cells: 293T cells, transient transfection with pGPR119
T2 sequence (Q8TDV5 1-335): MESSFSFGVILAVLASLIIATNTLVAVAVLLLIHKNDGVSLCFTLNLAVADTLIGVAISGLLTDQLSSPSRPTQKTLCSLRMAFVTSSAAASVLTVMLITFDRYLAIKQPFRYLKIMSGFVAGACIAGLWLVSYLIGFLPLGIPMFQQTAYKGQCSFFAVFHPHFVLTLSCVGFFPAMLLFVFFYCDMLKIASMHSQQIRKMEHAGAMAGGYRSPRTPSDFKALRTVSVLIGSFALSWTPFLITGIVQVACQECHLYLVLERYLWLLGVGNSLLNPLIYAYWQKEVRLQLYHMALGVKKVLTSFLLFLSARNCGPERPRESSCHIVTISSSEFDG
Experimental: as §2, with “An equal volume of loading buffer containing Fluo 4-AM was added the following day and cells were incubated for 1 h before stimulated with compounds.” left out
as §1

[6] = control 293T cells transfected with an empty plasmid
[7] = iv, i.v. 40 mg/kg, mean ± SEM, n = 5
[8] = po, p.o. 40 mg/kg, mean ± SEM, n = 5

## CCc1cc(-c2nc(C)c(COCc3ccc(Br)cc3)s2)ccn1 [WB403, 4-(5-((4-bromobenzyloxy)-methyl)-4-methylthiazol-2-yl)-2-ethylpyridine]
[1]; 1–50 μmol/l, 30 min, IBMX, Fig 1B
  Gs-coupled cAMP accumulation through TGR5: dose-dependently stimulate
[1]; [6]
  cAMP activity in control 293T cells: no stimulation
[2]; [7]
  AUC(0-inf): 26900 ng·h/mL
  AUC(0-t): 25000 ng·h/mL
  C0: 25700 ± 4600 ng/mL
  half-life: 2.77 ± 0.43 h
[2]; oral, p.o. 40 mg/kg vs i.v. 40 mg/kg, from AUC0-∞
  bioavailability: 12%
[2]; [8]
  AUC(0-inf): 3220 ng·h/mL
  AUC(0-t): 2280 ng·h/mL
  Cmax: 980 ± 160 ng/mL
  Tmax: 1.4 h
  half-life: 2.94 ± 1.08 h
[3]; 1–20 μmol/l, Fig 1A
  stimulation of luciferase reaction through TGR5: dose-dependently stimulate
[3]; CRE-luciferase, 293T cells, read-out: TGR5 EC50
  EC50: 5.5 µM
[3]; [6]
  luciferase activity in control 293T cells: no stimulation
[3]; screen of 100 compounds, S1 Fig
  TGR5 luciferase activity in primary screen (fold increase compared to DMSO control): relatively lower luciferase activity
[4]
  gallbladder filling: did not
[5]
  hGPR119 dependent cAMP accumulation: did not show significant stimulation activity; also recorded: no significant stimulation effect

— publication PMC4514850, “A Novel TGR5 Activator WB403 Promotes GLP-1 Secretion and Preserves Pancreatic β-Cells in Type 2 Diabetic Mice” (PLoS ONE, 2015)
